System: Burkholderia cepacia complex
Assay: Checkerboard FIC/FICI assay
Type: cell-based, Burkholderia spp.
Conditions: during FIC testing

For `C[C@@H](O)[C@H]1C(=O)N2C(C(=O)O)=C(S[C@@H]3CN[C@H](C(=O)N(C)C)C3)[C@H](C)[C@H]12` [MEM], the MIC (B. cenocepacia isolate 0548) was 4 µg/mL, the MIC (B. cenocepacia isolate 0813) was 9 µg/mL and the MIC (B. cepacia isolate 0546) was 4 µg/mL. For the same molecule, the MIC (B. cepacia isolate 1793) was 4 µg/mL and the MIC (B. multivorans isolate 1795) was 4 µg/mL.

From patent US20230124862A1, “BISMUTH THIOL COMPOUNDS AND COMPOSITIONS AND METHODS OF TREATING MICROBIAL CO-INFECTIONS” (Microbion Corporation, priority 2020, published 2023)
